Patent US7271165B2, “Rifamycin analogs and uses thereof” (priority 2003, dated 2007)
Values after ≈ are worked out from the molar mass of the structure shown.

Columns and labels:
E. faecalis = test: MIC assay, E. faecalis; format: cell-based, Enterococcus faecalis
E coli = test: MIC assay, E coli; format: cell-based
S. aureus = test: MIC assay, S. aureus; format: cell-based, Staphylococcus aureus
H. flu = format: cell-based, H. influenza; conditions: H. flu
S. pneumo. = test: MIC assay, S. pneumo.; format: cell-based, Streptococcus pneumoniae

| Structure (SMILES) | MIC (μg/mL) E. faecalis (E. faecalis) [µg/mL] | MIC (μg/mL) E coli (E coli) [µg/mL] | MIC (μg/mL) S. aureus (S. aureus) [µg/mL] | MIC (μg/mL) H. flu (H. flu) [µg/mL] | MIC (μg/mL) S. pneumo. (S. pneumo.) [µg/mL] |
| --- | --- | --- | --- | --- | --- |
| CCCNC(=O)NC1CCN(c2cc(O)c3nc4c5c6c7c(C)c(O)c5c(=O)c(c-4oc3c2)NC(=O)/C(C)=C\C=C\[C@H](C)[C@H](O)[C@@H](C)[C@@H](O)[C@@H](C)[C@H](OC(C)=O)[C@H](C)[C@@H](OC)/C=C/O[C@@](C)(O7)C6=O)CC1 [Compound 28, 3′-hydroxy-5′-[4-propyluryl-1-piperidinyl]benzoxazinorifamycin] | 1 (≈ 1020 nM) | >8 | 0.03 (≈ 30.5 nM) | 0.25 (≈ 254 nM) | 0.002 (≈ 2.03 nM) |
| CO[C@H]1/C=C/O[C@@]2(C)Oc3c(C)c(O)c4c(=O)c(c5oc6cc(N7CCC(NC(=O)OC(C)C)CC7)cc(O)c6nc-5c4c3C2=O)NC(=O)/C(C)=C\C=C\[C@H](C)[C@H](O)[C@@H](C)[C@@H](O)[C@@H](C)[C@H](O)[C@@H]1C [Compound 29] | 2 (≈ 2120 nM) | >8 | 0.008 (≈ 8.48 nM) | 1 (≈ 1060 nM) | 0.00012 (≈ 0.127 nM) |
| CCOC(=O)NC1CCN(c2ccc3nc4c5c6c7c(C)c(O)c5c(=O)c(c-4n(C)c3c2)NC(=O)/C(C)=C\C=C\[C@H](C)[C@H](O)[C@@H](C)[C@@H](O)[C@@H](C)[C@H](O)[C@H](C)[C@@H](OC)/C=C/O[C@@](C)(O7)C6=O)CC1 [Compound 31] | 0.25 (≈ 270 nM) | 8 (≈ 8640 nM) | 0.03 (≈ 32.4 nM) | 0.25 (≈ 270 nM) | 0.0005 (≈ 0.54 nM) |
| CO[C@H]1/C=C/O[C@@]2(C)Oc3c(C)c(O)c4c(=O)c(c5oc6cc(N7CCC(N)CC7)cc(O)c6nc-5c4c3C2=O)NC(=O)/C(C)=C\C=C\[C@H](C)[C@H](O)[C@@H](C)[C@@H](O)[C@@H](C)[C@H](OC(C)=O)[C@@H]1C [Compound 33, 3′-hydroxy-5′-[4-amino-1-piperidinyl]benzoxazinorifamycin] | 1 (≈ 1110 nM) | >8 | 0.008 (≈ 8.9 nM) | 1 (≈ 1110 nM) | 0.00006 (≈ 0.0667 nM) |
| CCNC(=O)NC1CCN(c2cc(O)c3nc4c5c6c7c(C)c(O)c5c(=O)c(c-4oc3c2)NC(=O)/C(C)=C\C=C\[C@H](C)[C@H](O)[C@@H](C)[C@@H](O)[C@@H](C)[C@H](OC(C)=O)[C@H](C)[C@@H](OC)/C=C/O[C@@](C)(O7)C6=O)CC1 [Compound 34, 3′-hydroxy-5′-[4-ethyluryl-1-piperidinyl]benzoxazinorifamycin] | 2 (≈ 2060 nM) | 8 (≈ 8250 nM) | 0.03 (≈ 30.9 nM) | 0.5 (≈ 515 nM) | 0.001 (≈ 1.03 nM) |
| CCCS(=O)(=O)NC1CCN(c2cc(O)c3nc4c5c6c7c(C)c(O)c5c(=O)c(c-4oc3c2)NC(=O)C(C)=CC=CC(C)C(O)C(C)C(O)C(C)C(OC(C)=O)C(C)C(OC)C=COC(C)(O7)C6=O)CC1 (centres unmarked) [Compound 35] | 4 (≈ 3980 nM) | 8 (≈ 7960 nM) | 0.015 (≈ 14.9 nM) | 0.5 (≈ 497 nM) | 0.00025 (≈ 0.249 nM) |
| CCCC(=O)NC1CCN(c2cc(O)c3nc4c5c6c7c(C)c(O)c5c(=O)c(c-4oc3c2)NC(=O)C(C)=CC=CC(C)C(O)C(C)C(O)C(C)C(O)C(C)C(OC)C=COC(C)(O7)C6=O)CC1 (centres unmarked) [Compound 36, 25-O-deacetyl-3′-hydroxy-5′-[4-butanamide-1-piperidinyl]benzoxazinorifamycin] | 2 (≈ 2160 nM) | >8 | 0.004 (≈ 4.31 nM) | 0.25 (≈ 270 nM) | 0.00003 (≈ 0.0324 nM) |
| CCNC(=O)NC1CCN(c2cc(O)c3nc4c5c6c7c(C)c(O)c5c(=O)c(c-4oc3c2)NC(=O)C(C)=CC=CC(C)C(O)C(C)C(O)C(C)C(O)C(C)C(OC)C=COC(C)(O7)C6=O)CC1 (centres unmarked) [Compound 37, 25-O-deacetyl-3′-hydroxy-5′-[4-ethyluryl-1-piperidinyl]benzoxazinorifamycin] | 2 (≈ 2160 nM) | >8 | 0.03 (≈ 32.3 nM) | 0.25 (≈ 269 nM) | 0.004 (≈ 4.31 nM) |
| COC1C=COC2(C)Oc3c(C)c(O)c4c(=O)c(c5oc6cc(N7CCC(NS(=O)(=O)C(F)(F)F)CC7)cc(O)c6nc-5c4c3C2=O)NC(=O)C(C)=CC=CC(C)C(O)C(C)C(O)C(C)C(O)C1C (centres unmarked) [Compound 38] | 8 (≈ 8090 nM) | >8 | 0.12 (≈ 121 nM) | 0.25 (≈ 253 nM) | 0.015 (≈ 15.2 nM) |
| COC1C=COC2(C)Oc3c(C)c(O)c4c(=O)c(c5oc6cc(N7CCC(N)CC7)cc(O)c6nc-5c4c3C2=O)NC(=O)C(C)=CC=CC(C)C(O)C(C)C(O)C(C)C(O)C1C (centres unmarked) [Compound 39, 25-O-deacetyl-3′-hydroxy-5′-[4-amino-1-piperidinyl]benzoxazinorifamycin] | 2 (≈ 2330 nM) | >8 | 0.03 (≈ 35 nM) | 0.25 (≈ 292 nM) | 0.001 (≈ 1.17 nM) |
| COCCOC(=O)NC1CCN(c2cc(O)c3nc4c5c6c7c(C)c(O)c5c(=O)c(c-4oc3c2)NC(=O)C(C)=CC=CC(C)C(O)C(C)C(O)C(C)C(OC(C)=O)C(C)C(OC)C=COC(C)(O7)C6=O)CC1 (centres unmarked) [Compound 41, 3′-hydroxy-5′-[4-methoxyethylcarbamyl-1-piperidinyl]benzoxazinorifamycin] | >8 | >8 | 0.25 (≈ 250 nM) | 2 (≈ 2000 nM) | 0.0005 (≈ 0.499 nM) |
| COC1C=COC2(C)Oc3c(C)c(O)c4c(=O)c(c5oc6cc(N7CCC(NC(C)=O)CC7)cc(O)c6nc-5c4c3C2=O)NC(=O)C(C)=CC=CC(C)C(O)C(C)C(O)C(C)C(O)C1C (centres unmarked) [Compound 43, 25-O-deacetyl-3′-hydroxy-5′-[4-acetamide-1-piperidinyl]benzoxazinorifamycin] | 2 (≈ 2220 nM) | >8 | 0.03 (≈ 33.4 nM) | 0.5 (≈ 556 nM) | 0.002 (≈ 2.22 nM) |
| COC1C=COC2(C)Oc3c(C)c(O)c4c(=O)c(c5oc6cc(N7CCC(NC(C)=O)CC7)cc(O)c6nc-5c4c3C2=O)NC(=O)C(C)=CC=CC(C)C(O)C(C)C(O)C(C)C(OC(C)=O)C1C (centres unmarked) [Compound 44] | 2 (≈ 2130 nM) | >8 | 0.06 (≈ 63.8 nM) | 0.25 (≈ 266 nM) | 0.008 (≈ 8.5 nM) |
